Tests used:
human dermal fibroblasts = experiment: immunofluorescence analysis of intracellular collagen synthesis (anti-COL1A2); format: cell-based; settings: peptide 1 and 10 μM, 24 hours, compared to untreated control group (FIG. 3)
Procedure: • 1. Immunofluorescence analysis was performed to evaluate the effects of the peptides of Example 1 on intracellular collagen synthesis. • 2. Specifically, 4.5×10^4 human dermal fibroblasts were seeded into each well of a 24-well microplate along with CEFOgro Human MSC Growth Medium). The cells were cultured in an incubator at a temperature of 37° C. and with 5% CO2 for 24 hours. Next, the cells were treated with each of the peptides of Example 1, and the cells were incubated under the same conditions for 24 hours. The concentration of each peptide in the medium was set to 1 and 10 μM. Out of two control groups, one received no treatment, and the other was treated with 1 μM retinol. The cells in each well were washed with PBS and fixed by treatment with 4% formaldehyde for 15 minutes, and then the cells were treated with 0.1% TritonX-100 for 5 minutes to increase antibody permeability into the cells. The cells were washed with PBS solution and treated with anti-COL1A2 polyclonal antibodies (Santa Cruz, CA, USA) for 1 hour. Next, the cells were treated with mouse anti-goat IgG-FITC for 40 minutes. To stain the cytoskeleton, the cells were treated with Phalloidin-Rhodamin for 40 minutes. After mounting with DAPI-added reagent for cell nucleus staining, the cells were observed using a fluorescence microscope (Logosbio/CelenaS, Korea) and quantified using a program (NIS-Eliments-3.1).

RAR and RXR = experiment: in-situ proximity ligation assay (PLA) of physical binding between RAR and RXR in HaCaT cells; format: cell-based, human; settings: peptide 1 and 10 μM, 30 minutes, compared to untreated control group (FIG. 1)
Procedure: • 1. Retinol regulates the transcription of target DNA by inducing the binding between Retinoic acid receptor (RAR) and Retinoid X Receptor (RXR). To confirm whether the peptides of Example 1 activate the binding between RXR/RAR, the effects of the peptides on the physical binding between RAR and RXR were evaluated using an in-situ proximity ligation assay (PLA) method. • 2. Specifically, 4.5×10^4 HaCaT cells (human keratinocytes) were seeded into each well of a 24-well microplate with DMEM serum medium. The cells were cultured in an incubator at a temperature of 37° C. and with 5% CO2 for 24 hours. Next, the cells were treated with each of the peptides of Example 1, and the cells were incubated under the same conditions for 30 minutes. The concentration of each peptide in the medium was set to 1 and 10 μM. The control group received no treatment. Afterward, the cells in each well were washed with PBS and fixed by treatment with 2% formaldehyde for 15 minutes, and then the cells were treated with 0.1% TritonX-100 for 5 minutes to increase antibody permeability into the cells. […] Afterward, the physical interaction of RAR and RXR antibodies was quantified by measuring luminescence signals (PLA signals) detected in each cell using a fluorescence microscope (Logosbio/CelenaS, Korea), and the results are shown in FIG. 1. • 4. […]

[1] = tested on: P53 and POLII (RNA Polymerase II); experiment: in-situ proximity ligation assay (PLA) of physical binding between P53 and POLII in HaCaT cells; format: cell-based, human; settings: peptide 1 and 10 μM, 30 minutes, compared to untreated control group (FIG. 2)
Procedure: • 1. To confirm whether the peptides of Example 1 increase the transcriptional activity of P53, which was related to cell anti-aging, cells were treated with the peptides of Example 1, and then the effects of the peptides on the physical binding between P53 and POLII (RNA Polymerase II) was evaluated using an in-situ proximity ligation assay (PLA) method. • 2. Specifically, 4.5×10^4 HaCaT cells (human keratinocytes) were seeded into each well of a 24-well microplate with DMEM serum medium. The cells were cultured in an incubator at a temperature of 37° C. and with 5% CO2 for 24 hours. Next, the cells were treated with each of the peptides of Example 1, and the cells were incubated under the same conditions for 30 minutes. The concentration of each peptide in the medium was set to 1 and 10 μM. The control group received no treatment. Afterward, the cells in each well were washed with PBS and fixed by treatment with 2% formaldehyde for 15 minutes, and then the cells were treated with 0.1% TritonX-100 for 5 minutes to increase antibody permeability into the cells. […] Afterward, the physical interaction of P53 and POLII antibodies was quantified by measuring luminescence signals (PLA signals) detected in each cell using a fluorescence microscope (Logosbio/CelenaS, Korea), and the results are shown in FIG. 2. • 4. […]

[2] = tested on: B16F10 cells (mouse melanocytes); experiment: inhibition of α-MSH-stimulated melanin synthesis in cells; format: cell-based; settings: 72 hours; for increase in melanin induced by α-MSH stimulation: 100 nM α-MSH, peptide 1 and 10 μM; for Melanin amount (of Control): no treatment = 100
Procedure: • 1. […] Specifically, 1×10^5 B16F10 cells (mouse melanocytes) were seeded into each well of a 6-well microplate with DMEM serum medium. The cells were cultured in an incubator at a temperature of 37° C. and with 5% CO2 for 24 hours. […] The concentration of each peptide in the medium was set to 1 and 10 μM. […] Afterward, to measure the amount of extracellular melanin, the supernatant was taken, and the absorbance of free melanin in the medium was measured at a wavelength of 400 nm. To measure the amount of intracellular melanin, the cells were washed with PBS after removing the medium, and then the cells were lysed with 1 M NaOH at a temperature of 60° C. for 30 minutes, and the absorbance was measured at a wavelength of 400 nm. The amount of free melanin and intracellular melanin measured by absorbance were quantified, and the results are shown in Table 2. • 3.

[3] = α-MSH (100 nM) + test substance 1 uM
[4] = α-MSH (100 nM) + test substance 10 uM

Thr-Val-Glu-Phe (TVEF) [Raragin B] was tested, and the collagen synthesis (human dermal fibroblasts) was “significantly increased”, the “physical binding between RAR and RXR (PLA signals)” value (RAR and RXR) was “increased” and the “physical binding between P53 and POLII (PLA signals)” value [1] was “increased”. The “increase in melanin induced by α-MSH stimulation” value [2] was “reduced”, the Melanin amount (of Control) [2, 3] was 109% and the Melanin amount (of Control) [2, 4] was 106%.

With Ile-Gln-Glu-Met (IQEM) [Raragin A] the collagen synthesis (human dermal fibroblasts) was “significantly increased”, the “physical binding between RAR and RXR (PLA signals)” value (RAR and RXR) was “increased” and the “physical binding between P53 and POLII (PLA signals)” value [1] was “increased”. For the same molecule, the “increase in melanin induced by α-MSH stimulation” value [2] was “reduced”, the Melanin amount (of Control) [2, 3] was 111% and the Melanin amount (of Control) [2, 4] was 107%.

Work on `CC1=C(/C=C/C(C)=C/C=C/C(C)=C/CO)C(C)(C)CCC1` [Retinol, retinol, reference compound] yielded a Melanin amount (of Control) [2, 3] of 114%.
